Assay results taken from US10640545B2 (THE GOVERNORS OF THE UNIVERSITY OF ALBERTA, priority 2017, dated 2020).
Where a SMILES comes first, the peptide text is derived from it. [ ]: non-standard residue; d: D form. The star is where a group is joined. Phe(4-Br) = N[C@@H](Cc1ccc(Br)cc1)C(=O)O; Palmitoyl = CCCCCCCCCCCCCCCC(=O)*; NMeL = CN[C@@H](CC(C)C)C(=O)O; Nle = CCCC[C@H](N)C(=O)O; Aib = CC(C)(N)C(=O)O

What was measured:
anesthetized mice = assay: Blood pressure assay in anesthetized mice; assay type: in vivo; conditions: 1.4 μM/kg body weight injected
Method in brief: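 Mice were anaesthetized with 1.5% isoflurane/oxygen and kept at 36 °C. Peptide (1.4 μM/kg body weight) or saline was injected via the right jugular vein. Arterial pressure and heart rate were recorded continuously through a catheter in the aorta via the right carotid artery over 60 min and reported as SBP, DBP, MABP and HR.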

[1] = target: T1, recombinant human APJ-Ga16 receptor (Homo sapiens, UniProt P35414); assay: Ca2+ mobilization assay (FLIPR, Chem-5-APJ cells); assay type: cell-based; conditions: among peptides 56-59
T1 construct: host or cells: Chem-5-APJ cells
T1 sequence (P35414 1-380): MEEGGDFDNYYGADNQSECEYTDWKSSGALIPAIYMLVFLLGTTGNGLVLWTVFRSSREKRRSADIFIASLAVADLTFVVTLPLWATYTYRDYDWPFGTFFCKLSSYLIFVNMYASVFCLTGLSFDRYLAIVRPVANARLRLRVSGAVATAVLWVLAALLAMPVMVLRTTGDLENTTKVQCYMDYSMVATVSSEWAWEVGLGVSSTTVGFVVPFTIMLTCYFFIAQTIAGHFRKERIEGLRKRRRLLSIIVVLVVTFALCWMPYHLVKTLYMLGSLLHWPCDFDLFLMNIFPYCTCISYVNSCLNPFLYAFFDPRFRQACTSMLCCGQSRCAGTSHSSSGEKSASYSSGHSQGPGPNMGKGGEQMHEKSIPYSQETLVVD
Description: To study the extent to which the newly derived peptides trigger APJ-receptor activation, a fluorescence coupled calcium release assay including a recombinant human APJ-Ga16 receptor cell line was used.
Chem-5-APJ cells (Millipore, USA) were seeded (30 000 cells/well) into Nunclon Delta Surface 96-well, clear-bottom microtitre plates (Thermo Scientific, Denmark) 24 hours prior to assay. Cells were loaded for 1 hour with FLIPR Calcium 6-QF fluorescent indicator dye (Molecular Devices, USA) in assay buffer [Hanks balanced salt solution (HBSS), 20 mM HEPES, 0.2% DMSO, 2.5 mM probenecid, pH 7.6], washed three times with assay buffer, then returned to the incubator for 10 min before assay on a fluorimetric imaging plate reader (FLIPR; Molecular Devices, Sunnyvale, Calif., USA). Maximum change in fluorescence over baseline was used to determine agonist response. Dose—response curve data were fitted to a four-parameter logistic equation using PRISM (Graph Pad, USA) from which pEC50 values were calculated. FIGS. 14A-G show the concentration response curves of apelin peptides.

Ca2+ mobilization (in words) [1]: lowest Ca^2+ mobilization
SMILES: CCCCCCCCCCCCCCCC(=O)N[C@@H](CCCCN)C(=O)N[C@@H](Cc1ccccc1)C(=O)N[C@@H](CCCNC(=N)N)C(=O)N[C@@H](CCCNC(=N)N)C(=O)N[C@@H](CCC(N)=O)C(=O)N[C@@H](CCCNC(=N)N)C(=O)N1CCC[C@H]1C(=O)N[C@@H](CCCNC(=N)N)C(=O)N(C)[C@@H](CC(C)C)C(=O)N[C@@H](CO)C(=O)N[C@@H](Cc1c[nH]cn1)C(=O)N[C@@H](CCCCN)C(=O)NCC(=O)N1CCC[C@H]1C(=O)N[C@@H](CCCC)C(=O)NC(C)(C)C(=O)N[C@@H](Cc1ccc(Br)cc1)C(=O)O [Peptide 58] (Palmitoyl-KFRRQRPR[NMeL]SHKGP[Nle][Aib][Phe(4-Br)]-OH; C-terminus assumed)
effect on heart rate (HR) (anesthetized mice): heart rate increasing effect is restored
